Measured values: ChEMBL document CHEMBL1201862, “PubChem BioAssay data set” (2004)
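Tested at 5 concentrations; 48 h exposure; 96-well plates; endpoints linearly interpolated, else capped at highest concentration. GI50: concentration for 50% inhibition of growth.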 Calls of active or inactive are those of the source. No stated cut-off is given here; in the data, active = GI50 up to about 1.1 µM and inactive = higher.

Tests used:
Assay in all cases: NCI tumour cell line growth inhibition, 48 h
IGROV-1 = test system: IGROV-1
ACHN = test system: ACHN
HCT-15 = test system: HCT-15
DMS-273 = test system: DMS-273
TK-10 = test system: TK-10
NCI-H460 = test system: NCI-H460
HOP-92 = test system: HOP-92
HOP-62 = test system: HOP-62
XF498 = test system: XF498
UO-31 = test system: UO-31
DMS-114 = test system: DMS-114
COLO 205 = test system: COLO 205
PC-3 = test system: PC-3
786-0 = test system: 786-0
SK-MEL-2 = test system: SK-MEL-2
DLD-1 = test system: DLD-1
KM-20L2 = test system: KM-20L2
EKVX = test system: EKVX
K562 = test system: K562
RPMI-8226 = test system: RPMI-8226
UACC-257 = test system: UACC-257
SR = test system: SR
LOX IMVI = test system: LOX IMVI
A498 = test system: A498
Malme-3M = test system: Malme-3M
LXFL 529 = test system: LXFL 529
KM12 = test system: KM12
BT-549 = test system: BT-549
M19-MEL = test system: M19-MEL
MDA-MB-231 = test system: MDA-MB-231
MDA-N = test system: MDA-N
SNB-75 = test system: SNB-75
HCC 2998 = test system: HCC 2998
SF-268 = test system: SF-268
Hs-578T = test system: Hs-578T
T47D = test system: T47D
UACC-62 = test system: UACC-62
M14 = test system: M14
SN12C = test system: SN12C
SNB-19 = test system: SNB-19
CAKI-1 = test system: CAKI-1
OVCAR-8 = test system: OVCAR-8
MDA-MB-435 = test system: MDA-MB-435
A549 = test system: A549
SF-539 = test system: SF-539
NCI-H23 = test system: NCI-H23
CCRF-CEM = test system: CCRF-CEM
DU-145 = test system: DU-145
NCI-H522 = test system: NCI-H522
SNB-78 = test system: SNB-78
MOLT-4 = test system: MOLT-4
SK-MEL-28 = test system: SK-MEL-28
U-251 = test system: U-251
SF-295 = test system: SF-295
MCF7 = test system: MCF7
OVCAR-5 = test system: OVCAR-5
SK-MEL-5 = test system: SK-MEL-5
SK-OV-3 = test system: SK-OV-3
NCI-H226 = test system: NCI-H226
HCT-116 = test system: HCT-116
OVCAR-3 = test system: OVCAR-3
RXF 393 = test system: RXF 393
HT-29 = test system: HT-29
OVCAR-4 = test system: OVCAR-4
SW-620 = test system: SW-620
HL-60 = test system: HL-60
HOP-18 = test system: HOP-18

Which results are given for C/C(=N\NC(=S)N1CCN(c2ccccn2)CC1)c1ccccn1?
GI50 (IGROV-1): 0.00151 µM (active); GI50 (ACHN): < 0.0239 µM (active); GI50 (HCT-15): 21.9 nM; GI50 (DMS-273): 0.00069 µM (active); GI50 (TK-10): 0.871 µM (active); GI50 (NCI-H460): 0.252 µM (active); GI50 (HOP-92): 0.0776 µM (active); GI50 (HOP-62): 0.035 µM (active); GI50 (XF498): 0.000206 µM (active); GI50 (UO-31): 0.998 µM (active); GI50 (DMS-114): 0.0001 µM (active); GI50 (COLO 205): 0.00419 µM (active); GI50 (PC-3): 30.4 nM (active); GI50 (786-0): 0.074 µM (active); GI50 (SK-MEL-2): 1.25 µM (inactive); GI50 (DLD-1): 0.509 nM (active); GI50 (KM-20L2): 0.413 nM (active); GI50 (EKVX): < 0.0154 µM (active); GI50 (K562): 0.00296 µM (active); GI50 (RPMI-8226): 6.81 nM (active); GI50 (UACC-257): 1.35 nM (active); GI50 (SR): 0.0522 µM (active); GI50 (LOX IMVI): 0.0403 µM (active); GI50 (A498): 853 nM (active); GI50 (Malme-3M): 0.224 µM (active); GI50 (LXFL 529): 0.342 nM (active); GI50 (KM12): 0.129 µM (active); GI50 (BT-549): 10 nM (active); GI50 (M19-MEL): 1.01 µM (active); GI50 (MDA-MB-231): 49.5 nM (active); GI50 (MDA-N): 167 nM (active); GI50 (SNB-75): 3.23 µM (inactive); GI50 (HCC 2998): 0.931 µM (active); GI50 (SF-268): 0.193 µM (active); GI50 (Hs-578T): 129 nM (active); GI50 (T47D): 107 nM (active); GI50 (UACC-62): 0.00646 µM (active); GI50 (M14): 0.0431 µM (active); GI50 (SN12C): 0.0206 µM (active); GI50 (SNB-19): 0.27 µM (active); GI50 (CAKI-1): 0.0467 µM (active); GI50 (OVCAR-8): 0.00281 µM (active); GI50 (MDA-MB-435): 111 nM (active); GI50 (A549): 0.111 µM (active); GI50 (SF-539): 0.397 µM (active); GI50 (NCI-H23): 0.022 µM (active); GI50 (CCRF-CEM): 3.37 nM (active); GI50 (DU-145): 1.08 µM (active); GI50 (NCI-H522): 0.0818 µM (active); GI50 (SNB-78): 5.38 µM (inactive); GI50 (MOLT-4): 0.0156 µM (active); GI50 (SK-MEL-28): 0.208 µM (active); GI50 (U-251): 0.00356 µM (active); GI50 (SF-295): 0.00532 µM (active); GI50 (MCF7): 7.82 nM (active); GI50 (OVCAR-5): 0.0474 µM (active); GI50 (SK-MEL-5): 0.0944 µM (active); GI50 (SK-OV-3): 0.0593 µM (active); GI50 (NCI-H226): 0.649 µM (active); GI50 (HCT-116): 0.00158 µM (active); GI50 (OVCAR-3): 0.00327 µM (active); GI50 (RXF 393): 0.4 µM (active); GI50 (HT-29): 74.5 nM (active); GI50 (OVCAR-4): 0.331 µM (active); GI50 (SW-620): 0.017 µM (active)

CCCCN(CCCC)CCCn1cnc2ncccc2c1=O was tested. Which GI50 (IGROV-1) did it give?
The GI50 was > 100 µM (inactive).

What about the GI50 (ACHN) of the same compound?
Its GI50 is > 100 µM (inactive).

What about the GI50 (DMS-273) of the same compound?
The GI50 was > 100 µM (inactive).

What about the GI50 (TK-10) of the same compound?
The GI50 was > 100 µM (inactive).

What about the GI50 (NCI-H460) of the same compound?
The GI50 was > 100 µM (inactive).

And the GI50 (HOP-92)?
The GI50 was > 100 µM (inactive).

What about the GI50 (HOP-62) of the same compound?
Its GI50 is > 100 µM (inactive).

What about the GI50 (XF498) of the same compound?
The GI50 was > 100 µM (inactive).

What about the GI50 (UO-31) of the same compound?
The GI50 was > 100 µM (inactive).

And the GI50 (DMS-114)?
The GI50 was 53.6 µM (inactive).

And the GI50 (COLO 205)?
Its GI50 is 65.6 µM (inactive).

And the GI50 (786-0)?
The GI50 was > 100 µM (inactive).

What about the GI50 (SK-MEL-2) of the same compound?
The GI50 was > 100 µM (inactive).

And the GI50 (DLD-1)?
Its GI50 is > 100000 nM (inactive).

What about the GI50 (KM-20L2) of the same compound?
Its GI50 is > 100000 nM (inactive).

What about the GI50 (EKVX) of the same compound?
The GI50 was > 100 µM (inactive).

And the GI50 (K562)?
Its GI50 is > 100 µM (inactive).

What about the GI50 (SR) of the same compound?
Its GI50 is > 100 µM (inactive).

What about the GI50 (LOX IMVI) of the same compound?
Its GI50 is > 100 µM (inactive).

And the GI50 (Malme-3M)?
Its GI50 is > 100 µM (inactive).

What about the GI50 (LXFL 529) of the same compound?
The GI50 was > 100000 nM (inactive).

And the GI50 (KM12)?
Its GI50 is > 100 µM (inactive).

And the GI50 (M19-MEL)?
The GI50 was > 100 µM (inactive).

What about the GI50 (SNB-75) of the same compound?
The GI50 was > 100 µM (inactive).

What about the GI50 (HCC 2998) of the same compound?
Its GI50 is > 100 µM (inactive).

And the GI50 (SF-268)?
Its GI50 is > 100 µM (inactive).

What about the GI50 (UACC-62) of the same compound?
Its GI50 is > 100 µM (inactive).

What about the GI50 (M14) of the same compound?
Its GI50 is > 100 µM (inactive).

And the GI50 (SN12C)?
The GI50 was > 100 µM (inactive).

What about the GI50 (SNB-19) of the same compound?
Its GI50 is > 100 µM (inactive).

What about the GI50 (CAKI-1) of the same compound?
The GI50 was > 100 µM (inactive).

And the GI50 (OVCAR-8)?
The GI50 was > 100 µM (inactive).

What about the GI50 (A549) of the same compound?
The GI50 was > 100 µM (inactive).

What about the GI50 (SF-539) of the same compound?
Its GI50 is > 100 µM (inactive).

What about the GI50 (NCI-H23) of the same compound?
The GI50 was > 100 µM (inactive).

And the GI50 (CCRF-CEM)?
Its GI50 is > 100000 nM (inactive).

What about the GI50 (NCI-H522) of the same compound?
Its GI50 is > 100 µM (inactive).

What about the GI50 (SNB-78) of the same compound?
The GI50 was > 100 µM (inactive).

What about the GI50 (MOLT-4) of the same compound?
The GI50 was > 100 µM (inactive).

What about the GI50 (SK-MEL-28) of the same compound?
Its GI50 is > 100 µM (inactive).

And the GI50 (U-251)?
Its GI50 is > 100 µM (inactive).

What about the GI50 (SF-295) of the same compound?
The GI50 was > 100 µM (inactive).

And the GI50 (OVCAR-5)?
The GI50 was > 100 µM (inactive).

What about the GI50 (SK-MEL-5) of the same compound?
The GI50 was 72.6 µM (inactive).

What about the GI50 (SK-OV-3) of the same compound?
The GI50 was > 100 µM (inactive).

And the GI50 (NCI-H226)?
The GI50 was > 100 µM (inactive).

What about the GI50 (HCT-116) of the same compound?
The GI50 was > 100 µM (inactive).

And the GI50 (OVCAR-3)?
Its GI50 is > 100 µM (inactive).

What about the GI50 (RXF 393) of the same compound?
Its GI50 is > 100 µM (inactive).

What about the GI50 (HT-29) of the same compound?
Its GI50 is > 100000 nM (inactive).

And the GI50 (OVCAR-4)?
Its GI50 is > 100 µM (inactive).

And the GI50 (SW-620)?
Its GI50 is > 100 µM (inactive).

What does the source list for CC[C@@]1(O)C[C@H](OC2CC(N(C)C)C(OC3CC(O)C(OC4CCC(=O)C(C)O4)C(C)O3)C(C)O2)c2c(cc3c(c2O)C(=O)c2c(O)cccc2C3=O)[C@H]1C(=O)OC (stereo not given in full)?
GI50 (DLD-1): 32.7 nM (active); GI50 (KM-20L2): 12.8 nM (active); GI50 (RPMI-8226): 27.8 nM (active); GI50 (HL-60): 31.7 nM (active); GI50 (LXFL 529): 9.04 nM (active); GI50 (HOP-18): 73.6 nM (active); GI50 (CCRF-CEM): 18.4 nM (active); GI50 (HT-29): 14.7 nM (active)
